How the values were obtained:
Assay type in all cases: physicochemical
[1] = Dynamic vapor sorption (DVS) analysis; details: for hygroscopicity by DVS / mass uptake by DVS / mass uptake by DVS expressed as equivalents of water: 25° C.; for hygroscopicity by DVS: up to 90% RH; for change of the XRPD pattern of the sample following the DVS analysis: after two sorption/desorption cycles at 25° C.; for mass uptake by DVS / mass uptake by DVS expressed as equivalents of water: at 90% RH
Description: Approximately 10-20 mg of sample was placed into a mesh vapor sorption balance pan and loaded into a DVS Intrinsic/Advantage dynamic vapor sorption balance by Surface Measurement Systems. The sample was subjected to a ramping profile from 40-90% relative humidity (RH) at 10% increments, maintaining the sample at each step until a stable weight had been achieved (dm/dt 0.004%, minimum step length 30 minutes, maximum step length 500 minutes) at 25° C. After completion of the sorption cycle, the sample was dried using the same procedure to 0% RH and then a second sorption cycle back to 40% RH. Two cycles were performed. The weight change during the sorption/desorption cycles were plotted, allowing for the hygroscopic nature of the sample to be determined. XRPD analysis was then carried out on any solid retained. The microbalance was calibrated monthly using a certified calibration weight and the relative humidity at 25° C. was calibrated against deliquescence point of LiCl, MgCl and NaCl. Data were not corrected for the initial water content of the sample, and data were shown according to the dry mass of the sample at 0% RH.

[2] = TGA analysis; details: up to 185° C., heating rate 10° C./min
Description: (§1) TGA data were collected using a TA Q500 TGA from TA Instruments, and DSC was conducted using a TA Q2000 DSC from TA Instruments. The TGA was calibrated with a nickel reference standard and the DSC was calibrated with an indium reference standard.

[3] = Competitive slurry experiments of Form S1 and Form S4; details: IPA, approximately equal amounts of Form S1 and Form S4
Description: To verify the transition temperature between Form S1 and Form S4 of Compound (1) calculated from the DSC data, competitive slurry experiments of Form S1 and Form S4 were performed.
In each experiment, slurries were generated using approximately equal amounts of Form S1 and Form S4. The forms were suspended in 0.3 mL of solvent in a 1.5 mL glass vial. […] The remaining solids were isolated via centrifugation (10000 rpm, 3 min) and analyzed using the XPRD analysis method described above.

[4] = DSC analysis (form conversion under heating); details: TGA/DSC heating
Description: as §1

Compound	hygroscopicity by DVS [1]	change of the XRPD pattern of the sample following the DVS analysis [1]	mass uptake by DVS [1]	mass uptake by DVS expressed as equivalents of water [1] [eq. water]	weight loss on the TGA curve [2] [%]	Results: solid form remaining after competitive slurry (XRPD) ([3]; 60 ° C., time point 1 hr)	Results: solid form remaining after competitive slurry (XRPD) ([3]; 70 ° C., time point 1 hr)	form conversion under heating conditions (thermal analyses) [4]	Results: solid form remaining after competitive slurry (XRPD) ([3]; 80 ° C., time point not given)
COC[C@@]1(O)CC[C@H]2[C@@H](CC[C@@H]3[C@@H]2CC[C@]2(C)[C@@H](C(=O)Cn4nnc(C)n4)CC[C@@H]32)C1 [Form S4]	non-hygroscopic	No change	ca. 0.12 wt. %	0.02	0.1	converted to Form S1	converted to Form S1	–	–
COC[C@@]1(O)CC[C@H]2[C@@H](CC[C@@H]3[C@@H]2CC[C@]2(C)[C@@H](C(=O)Cn4nnc(C)n4)CC[C@@H]32)C1 [Form S1]	substantially non-hygroscopic	No change	ca. 0.6 wt. %	0.14	0.1	–	–	converts to Form S4	converted to Form S4
COC[C@@]1(O)CC[C@H]2[C@@H](CC[C@@H]3[C@@H]2CC[C@]2(C)[C@@H](C(=O)Cn4nnc(C)n4)CC[C@@H]32)C1 [Form S1 and Form S4]	–	–	–	–	–	Form S1	Form S1	–	Form S4
